In paper PMC5980259, “GI‐530159, a novel, selective, mechanosensitive two‐pore‐domain potassium (K2P) channel opener, reduces rat dorsal root ganglion neuron excitability” (British Journal of Pharmacology, 2017):

Assays:
THIK1 (K2P13.1) = target: T1, THIK1 (K2P13.1) (Homo sapiens, UniProt Q9HB14); assay: Whole-cell patch clamp, THIK1 channels; assay type: cell-based; details: 1 μM; n = 7
T1 construct: expressed in transfected cells; host or cells: tsA-201, transient, pcDNA3.1 vector
Description: Recordings of hTREK1, hTREK1∆N, hTREK2, hTRAAK and […] currents from transiently transfected tsA‐201 cells were performed using methods as described in Veale and Mathie (2016). Briefly, the pcDNA3.1 vector was cloned with the gene of interest, and these vectors and a similar vector containing GFP were incorporated into the tsA201 cells (0.5 μg per well) using the calcium phosphate method. The cells were incubated for 6–12 h at 37°C in […] and 5% carbon dioxide. Cells were then washed using a PBS solution and used for experiments after 24 h.
Currents were recorded using whole‐cell patch‐clamp using an Axopatch 1D amplifier. Cells were placed in a recording chamber filled with an external medium composed of 145 mM, NaCl, 2.5 mM KCl, 3 mM MgCl2, 1 mM CaCl2 and 10 mM HEPES (pH to 7.4, using NaOH). The internal medium used in the glass pipette comprised 150 mM KCl, 3 mM MgCl2, 5 mM (or 0.1 mM) EGTA and 10 mM HEPES (pH to 7.4, using KOH). GI‐530159 was applied by bath perfusion. Currents were recorded and analysed using pCLAMP 10.2 software Microsoft Excel. The voltage protocol used for recording current through K2P channels was as previously described (Veale and Mathie, 2016). For analysis, we measured the current difference between the −80 and −40 mV steps.

NaV1.2 = NaV1.2 (Homo sapiens, UniProt Q99250); assay: Sodium channel selectivity, NaV1.2; assay type: cell-based; details: read-out: EC50 against NaV1.2
NaV1.2, sequence (Q99250 whole entry): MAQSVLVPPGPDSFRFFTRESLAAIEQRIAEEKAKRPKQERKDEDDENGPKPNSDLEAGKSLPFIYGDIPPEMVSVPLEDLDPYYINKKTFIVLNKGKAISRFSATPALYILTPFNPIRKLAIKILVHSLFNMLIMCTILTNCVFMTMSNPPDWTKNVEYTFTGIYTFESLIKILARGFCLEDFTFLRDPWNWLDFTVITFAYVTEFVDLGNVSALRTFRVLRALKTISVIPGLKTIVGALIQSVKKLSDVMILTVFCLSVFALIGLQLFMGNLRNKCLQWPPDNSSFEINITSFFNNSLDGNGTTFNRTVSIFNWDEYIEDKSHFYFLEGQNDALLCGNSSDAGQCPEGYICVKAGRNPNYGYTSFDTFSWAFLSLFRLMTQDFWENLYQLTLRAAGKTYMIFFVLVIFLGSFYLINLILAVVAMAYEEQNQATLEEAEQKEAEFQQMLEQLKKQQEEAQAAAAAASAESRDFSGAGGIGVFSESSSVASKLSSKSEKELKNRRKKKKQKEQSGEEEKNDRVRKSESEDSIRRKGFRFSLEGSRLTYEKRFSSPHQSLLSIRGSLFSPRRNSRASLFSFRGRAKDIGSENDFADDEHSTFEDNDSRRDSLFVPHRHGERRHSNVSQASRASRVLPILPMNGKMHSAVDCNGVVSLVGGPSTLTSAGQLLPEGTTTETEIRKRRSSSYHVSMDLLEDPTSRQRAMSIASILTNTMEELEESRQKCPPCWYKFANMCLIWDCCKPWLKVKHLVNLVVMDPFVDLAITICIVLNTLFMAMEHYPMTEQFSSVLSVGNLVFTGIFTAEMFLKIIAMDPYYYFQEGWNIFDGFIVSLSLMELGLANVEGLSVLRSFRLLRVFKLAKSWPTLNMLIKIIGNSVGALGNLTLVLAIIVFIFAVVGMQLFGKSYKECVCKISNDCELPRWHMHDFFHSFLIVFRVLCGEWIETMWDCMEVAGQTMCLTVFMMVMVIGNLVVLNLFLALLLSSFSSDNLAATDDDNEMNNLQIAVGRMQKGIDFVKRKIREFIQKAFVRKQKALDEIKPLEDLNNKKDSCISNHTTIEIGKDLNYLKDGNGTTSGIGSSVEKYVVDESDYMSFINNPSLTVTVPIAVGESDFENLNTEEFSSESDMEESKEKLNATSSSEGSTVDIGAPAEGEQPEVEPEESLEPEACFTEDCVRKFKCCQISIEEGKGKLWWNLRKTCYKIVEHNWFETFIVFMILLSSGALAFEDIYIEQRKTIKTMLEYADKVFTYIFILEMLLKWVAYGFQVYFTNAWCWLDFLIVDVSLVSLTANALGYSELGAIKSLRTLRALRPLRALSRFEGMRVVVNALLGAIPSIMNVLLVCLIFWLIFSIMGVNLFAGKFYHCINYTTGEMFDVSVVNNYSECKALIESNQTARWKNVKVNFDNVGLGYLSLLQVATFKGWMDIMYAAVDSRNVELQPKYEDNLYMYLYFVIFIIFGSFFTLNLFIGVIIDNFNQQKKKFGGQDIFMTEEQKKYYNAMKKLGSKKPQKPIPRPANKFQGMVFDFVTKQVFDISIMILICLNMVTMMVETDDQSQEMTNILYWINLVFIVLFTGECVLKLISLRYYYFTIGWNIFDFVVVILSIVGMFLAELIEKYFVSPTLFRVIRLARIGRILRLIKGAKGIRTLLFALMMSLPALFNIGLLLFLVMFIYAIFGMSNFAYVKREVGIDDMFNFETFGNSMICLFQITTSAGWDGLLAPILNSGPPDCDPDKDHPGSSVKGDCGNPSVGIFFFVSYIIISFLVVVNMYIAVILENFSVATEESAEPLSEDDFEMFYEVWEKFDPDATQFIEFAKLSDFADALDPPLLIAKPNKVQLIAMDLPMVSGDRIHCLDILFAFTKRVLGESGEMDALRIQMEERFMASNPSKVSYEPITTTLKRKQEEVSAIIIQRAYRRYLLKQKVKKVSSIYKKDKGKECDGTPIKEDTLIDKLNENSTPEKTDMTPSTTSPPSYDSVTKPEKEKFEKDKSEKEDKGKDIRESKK

T1 sequence (Q9HB14 whole entry): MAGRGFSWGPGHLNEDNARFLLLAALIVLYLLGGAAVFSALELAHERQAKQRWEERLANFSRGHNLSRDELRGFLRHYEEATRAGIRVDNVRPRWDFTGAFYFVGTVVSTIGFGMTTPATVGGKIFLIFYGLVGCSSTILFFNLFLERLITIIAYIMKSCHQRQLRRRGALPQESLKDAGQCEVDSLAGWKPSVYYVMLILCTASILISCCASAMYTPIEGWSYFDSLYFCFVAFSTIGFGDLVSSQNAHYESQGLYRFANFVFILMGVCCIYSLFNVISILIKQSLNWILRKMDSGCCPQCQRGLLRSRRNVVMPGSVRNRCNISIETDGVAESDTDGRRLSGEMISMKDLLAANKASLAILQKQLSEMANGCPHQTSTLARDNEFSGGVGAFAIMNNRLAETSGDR

Structure (SMILES): Nc1ccc(Oc2ccc(C(c3ccc(Oc4ccc(N)cc4)cc3)(C(F)(F)F)C(F)(F)F)cc2)cc1 [GI‐530159, 4,4′‐(hexafluoroisopropylidene)bis(p‐phenyleneoxy)dianiline]
- effect on THIK1 (K2P13.1) current (THIK1 (K2P13.1)): 0 ± 3%
- EC50 (NaV1.2): > 100 µM
